{
  "source": "patent US6046235A",
  "about": "“Sulfur-containing amino acid derivatives” (Santen Pharmaceutical Co., Ltd., priority 1996, dated 2000)",
  "key": {"[1]": {"test_system": "LTA4 hydrolase", "conditions": "literature; cited from earlier work"}, "[2]": {"test_system": "collagen-induced arthritis model", "conditions": "J. Med. Chem., 37, 3197-3199 (1994); cited from earlier work"}, "[3]": {"target": "T1, LTA4 hydrolase (Cavia porcellus, UniProt P19602)", "T1 construct": "Lungs were excised from a Hartley guinea pig; from tissue; host or cells: Hartley guinea pig lung, 100,000×g supernatant, 40-70% ammonium sulfate fraction, dialyzed", "T1 sequence (P19602 1-611)": "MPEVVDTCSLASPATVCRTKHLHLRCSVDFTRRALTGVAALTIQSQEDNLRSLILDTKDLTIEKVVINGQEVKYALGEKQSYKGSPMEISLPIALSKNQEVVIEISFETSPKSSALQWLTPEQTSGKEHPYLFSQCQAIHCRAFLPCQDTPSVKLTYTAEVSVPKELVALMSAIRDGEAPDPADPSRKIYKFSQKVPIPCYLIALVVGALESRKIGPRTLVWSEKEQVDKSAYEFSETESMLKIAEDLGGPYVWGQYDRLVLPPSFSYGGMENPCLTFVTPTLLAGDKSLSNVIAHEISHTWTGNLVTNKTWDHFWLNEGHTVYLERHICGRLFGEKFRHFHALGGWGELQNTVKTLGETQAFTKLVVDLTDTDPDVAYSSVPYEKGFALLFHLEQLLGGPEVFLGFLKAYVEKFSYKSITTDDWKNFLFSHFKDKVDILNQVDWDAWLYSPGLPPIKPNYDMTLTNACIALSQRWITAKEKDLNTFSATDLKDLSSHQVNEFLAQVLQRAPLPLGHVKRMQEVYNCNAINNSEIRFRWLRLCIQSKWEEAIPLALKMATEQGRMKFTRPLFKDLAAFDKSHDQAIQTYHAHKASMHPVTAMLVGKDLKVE", "assay": "LTA4 hydrolase inhibition (LTB4 formed from LTA4, guinea pig lung enzyme preparation)", "type": "biochemical", "protocol": "Effects of the present compounds on LTA4 hydrolase were examined according to the method described in the literature.\nLungs were excised from a Hartley guinea pig (body weight: 330 g). The lungs were homogenized in phosphoric acid buffer (50 mM, pH 7.4, containing 1 mM ethylenediaminetetraacetic acid (EDTA) and 1 mM dithiothreitol (DTT) having weight three times that of the lungs under ice-cooling. The homogenate was centrifuged at low speed (800×g) for 20 minutes, centrifuged at high speed (10,000×g) for 20 minutes and ultracentrifuged (100,000×g) for 60 minutes to give a supernatant. The supernatant was brought to 40% saturation by adding a saturated aqueous ammonium sulfate solution (pH 7.0-7.2, containing 1 mM DTT) dropwise under ice-cooling and centrifuged at high speed (10,000×g) for 20 minutes. The resulting supernatant was brought to 70% saturation by adding a saturated aqueous ammonium sulfate solution (pH 7.0-7.2, containing 1 mM DTT) dropwise and centrifuged at high speed (10,000×g) for 20 minutes. The obtained pellet was dissolved in 2 ml of Tris-acetic acid buffer (20 mM, pH 7.8, containing 1 mM DTT) and dialyzed in 2 liters of the solution to give the enzyme preparation.\nLTA4 used, which is the substrate, was prepared by hydrolyzing LTA4 methyl ester and dissolved in ethanol.\nIn order to examine effects of the present compounds on the enzyme preparation, reactions were performed under the following condition using mixed solutions consisting of the composition shown in Table 1.\nHEPES buffer 50 mM, pH 7.8\nEnzyme preparation 0.4-0.6 mg protein\nAqueous DTT solution 3 mM\nThe above-mentioned solution (50 μl ) was incubated at 37° C. for one minute. To the reaction mixture was added 100 μl of a mixed liquid of acetonitrile-ethanol-acetic acid (150:50:3, volume ratio) under ice-cooling. The mixture was allowed to stand at -20° C. for 30 minutes and centrifuged at high speed (10,000×g) for five minutes to give a supernatant. An amount of LTB4 produced in the supernatant was measured by high-speed liquid chromatography.\nThe degree of the inhibitory effect of each test compound on LTA4 hydrolase is expressed by the inhibition rate calculated by the following equation. [formula]\nA: amount of LTB4 formed in the absence of the test compound\nB: amount of LTB4 formed in the presence of the test compound\nExperiments were carried out under the same conditions as those of the above-mentioned \"Pharmacological Test\"."}},
  "note": "Like-named read-outs stand apart in the source and are kept apart here.",
  "data": [
    {"smiles": "O=C(O)c1cccc(C2CO2)c1", "note": "(centres unmarked) [3-oxiranylbenzoic acid]", "values": [
      {"measurement": "inhibitory effect on LTA4 hydrolase (in words)", "setting": "[1]", "value": "inhibitory effects on LTA4 hydrolase"}
    ]},
    {"smiles": "O=C(O)C1(c2ccc3c(c2)OC[C@H](Cc2ccc(-c4ccccc4)cc2)[C@H]3O)CCCC1", "note": "[(+)-1-(3S, 4R)-[3-(4-phenylbenzyl)-4-hydroxychroman-7-yl]cyclopentanecarboxylic acid]", "values": [
      {"measurement": "inhibitory effect on LTA4 hydrolase (in words)", "setting": "[1]", "value": "inhibitory effect on LTA4 hydrolase"},
      {"measurement": "onset of arthritis (in words)", "setting": "[2]", "value": "inhibited the onset of arthritis"}
    ]},
    {"smiles": "C[C@H](CS)C(=O)N[C@@H](CSC(C)(C)c1ccc(C2CCCCC2)cc1)C(=O)O", "note": "[Compound No. 2-39, (2R)-3-[(4-Cyclohexyl-α,α-dimethyl)benzylthio]-2-[(2S)-3-mercapto-2-methylpropionylamino]propionic acid]", "values": [
      {"measurement": "IC50", "setting": "[3]; Table 2, guinea pig lung enzyme preparation, LTA4 63 μM, 37° C., one minute, pH 7.8, read-out: IC50 (concentration required to inhibit LTA4 hydrolase by 50%)", "value": 55, "unit": "nM"}
    ]},
    {"smiles": "CC(C)(C)c1ccc(CSC[C@H](NC(=O)C(CS)Cc2ccccc2)C(=O)O)cc1", "note": "(some centres unmarked) [known compound [II], reference compound]", "values": [
      {"measurement": "inhibitory effect on LTA4 hydrolase relative to that of the present compound (No. 2-12)", "setting": "[3]; Comparison Test, ratio to compound No. 2-12", "value": "about 1/100"},
      {"measurement": "inhibitory effect on LTA4 hydrolase relative to those of the present compounds", "setting": "[3]; Comparison Test, ratio to the present compounds", "value": "one tenth"},
      {"measurement": "IC50", "setting": "[3]; Comparison Test, same conditions as Pharmacological Test, read-out: IC50", "value": 4500, "unit": "nM"}
    ]},
    {"smiles": "CC(CS)C(=O)N[C@@H](CSCc1ccccc1)C(=O)O", "note": "(some centres unmarked) [known compound [I], reference compound]", "values": [
      {"measurement": "inhibitory effect on LTA4 hydrolase", "setting": "[3]; Comparison Test, even at a concentration of 10^-5 M", "value": "little inhibitory effect"}
    ]}
  ]
}
